The values below come from patent US20050244938A1, “Manzamine-producing actinomycetes” (priority 2002, published 2005).

Converted amounts (≈) assume the structure as drawn. Where two headings read alike, the source gives them in different places.

The subject of data set [1] is Mycobacterium tuberculosis (H37Rv). In words: microplate Alamar Blue assay, in vitro activity against Mycobacterium tuberculosis. The format is cell-based.
For data set [2], the system named is Plasmodium falciparum (D6 clone). The data set is described as follows: in vitro antimalarial activity, D6 clone. The format is cell-based. To be noted: for IC50: Plasmodium falciparum.
Data set [3] deals with P. falciparum (chlorine-resistant W2 clone). The data set is described as follows: in vitro antimalarial activity, resistant W2 clone. Format: cell-based, Plasmodium falciparum. As to conditions: NA = not active; for IC50: Plasmodium falciparum, read-out: P. falciparum (chlorine-resistant W2 clone) in vitro IC 50.
A further data set has as its system Nocardia sp. ATCC 21145. In words: microbial transformation study to model human metabolism. To be noted: monitored by TLC, metabolite identical to ent-12,34-oxamanzamine F (2).
Data set [4] relates to Fusarium oxysporium ATCC 7601. The data set is described as above. To be noted: monitored by TLC, metabolite identical to ent-12,34-oxamanzamine F (2).
Protocol: (§1) In order to model the human metabolism of the manzamines and to generate additional analogs for biological evaluation, microbial transformation studies were performed for ent-8-hydroxymanzamine A (El Sayed, et al., 2001) (3). Thirty-three growing microbial cultures were screened for their potential to bioconvert 3 to new metabolites.
The nature of a further data set: toxicity (no method). To be noted: qualitative statement.
Setting [5] is: D6 clone, in vitro, NA = not active.

Protocol for Nocardia sp. ATCC 21145: as §1

For the compound `O=C1CCCN2[C@H]3[C@]45CN6CCCC/C=C\CC[C@]3(C=C(c3nccc7c3[nH]c3c(O)cccc37)[C@H]4CC6)O[C@]2(CC1)C5` (single isomer, unassigned; ent-12) [ent-12,34-Oxamanzamine F (2), ent-12,34-oxamanzamine F], the “Mycobacterium tuberculosis (H37Rv) MIC” value in data set [1] amounted to 12.5 µg/mL. In data set [2] (setting [5]), the “Plasmodium falciparum (D6 clone) in vitro IC 50” value (“Plasmodium falciparum (D6 clone)” for short) is 0.84 µg/mL. Further, the “P. falciparum (chlorine-resistant W2 clone) in vitro IC 50” value (shortened to “P. falciparum”) in data set [3] amounted to 1.1 µg/mL.
The matching figures for `O[C@]12C=C(c3nccc4c3[nH]c3ccccc34)C3CCN(CCCC/C=C\CC1)C[C@@]31C[C@]34CC[C@H](CCCN3[C@H]12)O4` (some centres unmarked) [6-Deoxymanzamine X, 6-deoxymanzamine X]: 1.77 µg/mL, 1.3 µg/mL and 1.4 µg/mL.
Take `C1=C(c2nccc3c2[nH]c2ccccc23)[C@@H]2CCN3CCCC/C=C\CC[C@]14O[C@@]15/C=C\CCCCN1[C@@H]4[C@]2(C3)C5` [12,34-oxamanzamine A (4), 12,34-oxamanzamine A]: the “Plasmodium falciparum (D6 clone)” value in data set [2] (setting [5]) was 4.76 µg/mL.
On to `C[C@@H]1CC[C@H]2[C@@H](C)C(=O)O[C@@H]3O[C@@]4(C)CC[C@@H]1[C@]32OO4` [Artemisinin], for which the IC50 in data set [2] (D6 clone, in vitro, NA = not active, read-out: Plasmodium falciparum (D6 clone) in vitro IC 50) came to 0.01 µg/mL (≈ 0.0354 µM); in data set [3], 0.0063 µg/mL (≈ 0.0223 µM).
For `CCN(CC)CCCC(C)Nc1ccnc2cc(Cl)ccc12` (centres unmarked) [Chloroquine], the IC50 is 0.0155 µg/mL (≈ 0.0485 µM) in data set [2] (D6, read-out: Plasmodium falciparum (D6 clone) in vitro IC 50) and 0.17 µg/mL (≈ 0.531 µM) in data set [3].
Turning to `O=CC1=C[C@@]2(O)CC/C=C\CCCCN3CC[C@@H]1[C@]1(CC4/C=C\CCCCN4[C@H]12)C3` (some centres unmarked) [Ircinal A, ircinal A], the “Mycobacterium tuberculosis (H37Rv) MIC” value in data set [1] is 30.2 µg/mL.
`O[C@]12C=C(c3nccc4c3[nH]c3ccccc34)[C@@H]3CCN(CCCC/C=C\CC1)C[C@@]31C[C@@H]3/C=C\CCCCN3[C@H]12` [Manzamine A, manzamine A]: the “Mycobacterium tuberculosis (H37Rv) MIC” value in data set [1] worked out at 1.53 µg/mL. Moreover, the “Plasmodium falciparum (D6 clone)” value in data set [2] (setting [5]) was determined as 0.0045 µg/mL. Besides, the “P. falciparum” value in data set [3] stood at 0.008 µg/mL.
For `O=C1CCCN2[C@@H](CC1)C[C@]13CN4CCCC/C=C\CC[C@](O)(C=C(c5nccc6c5[nH]c5ccccc56)[C@@H]1CC4)[C@H]23` [Manzamine E, manzamine E], in that order: 3.76 µg/mL, 3.4 µg/mL and 4.76 µg/mL.
The matching figures for `O=C1CCCN2[C@@H](CC1)C[C@]13CN4CCCC/C=C\CC[C@](O)(C=C(c5nccc6c5[nH]c5c(O)cccc56)C1CC4)[C@H]23` (some centres unmarked) [Manzamine F, manzamine F]: 2.56 µg/mL, 0.78 µg/mL and 1.7 µg/mL.
The matching figures for (+)-8-hydroxymanzamine A: 0.91 µg/mL, 0.006 µg/mL and 0.008 µg/mL.
Regarding “ent-8-hydroxymanzamine A [ent-8-hydroxymanzamine A (3)]”, the “Mycobacterium tuberculosis (H37Rv) MIC” value in data set [1] is 3.13 µg/mL. Moreover, the “bioconversion by growing microbial culture” value (in the data set on Nocardia sp. ATCC 21145; in data set [4]) was “exhaustively metabolize” throughout.
Turning to “ent-12,34-oxamanzamine E [ent-12,34-Oxamanamine E (1)]”, the “Mycobacterium tuberculosis (H37Rv) MIC” value in data set [1] stood at 128 µg/mL.
Take ircinol A: the “Mycobacterium tuberculosis (H37Rv) MIC” value in data set [1] amounted to 1.93 µg/mL. In data set [2] (setting [5]), the “Plasmodium falciparum (D6 clone)” value came to 2.4 µg/mL. For the same compound, the “P. falciparum” value in data set [3] stood at 3.1 µg/mL. In addition, in “toxicity (no method)”, the toxicity result is listed as “minimal toxicity”.
